Reference: PubChem BioAssay (NCI)
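In this assay, cells in 96-well plates receive the compound at five concentrations for 48 hours. Endpoints are linearly interpolated between the surrounding concentrations. TGI denotes the concentration required for complete inhibition of growth.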 Where a SMILES comes first, the peptide text is derived from it.

What was measured:
Experiment in all cases: NCI-60 cell line screen, 48 h
[1] = test system: DLD-1 colon
[2] = test system: DMS 114 small cell lung
[3] = test system: DMS 273 small cell lung
[4] = test system: EKVX NSCLC
[5] = test system: KM20L2 colon
[6] = test system: M19-MEL melanoma
[7] = test system: OVCAR-4 ovarian
[8] = test system: OVCAR-5 ovarian
[9] = test system: RPMI-8226 leukemia
[10] = test system: SK-MEL-28 melanoma
[11] = test system: SK-OV-3 ovarian
[12] = test system: MCF7 breast
[13] = test system: MDA-N

Row | SMILES | TGI [1] | TGI [2] | TGI [3] | TGI [4] | TGI [5] | TGI [6] | TGI [7] | TGI [8] | TGI [9] | TGI [10] | TGI [11] | TGI [12] | TGI [13]
1 | NC(=O)N/N=C(/Cc1nc2ccc(C(=O)c3ccccc3)cc2[nH]c1=O)C(=O)Nc1ccc(C(F)(F)F)cc1[N+](=O)[O-] | > 100 µM | > 100 µM | > 100 µM | > 100 µM | > 100 µM | > 100 µM | > 100 µM | > 100 µM | > 100 µM | > 100 µM | > 100 µM |  | 
2 | O=C(Nc1cc(Cl)cc(Cl)c1)/C(Cc1nc2ccccc2[nH]c1=O)=N/NC(=O)c1ccncc1 | > 100 µM | > 100 µM |  | > 100 µM | > 100 µM | > 100 µM | > 100 µM | > 100 µM | > 100 µM |  | > 100 µM |  | 
3 | O=S(=O)(c1ccccc1)n1cc(C[P+](c2ccccc2)(c2ccccc2)c2ccccc2)c2ccccc21 | 11 µM | 14.4 µM | 10.2 µM | 15.8 µM | 16.6 µM | 15.9 µM | 22 µM | 32.2 µM | 18.8 µM | 14.2 µM | 7.86 µM |  | 
4 | CN(C)CC1CCCCCCCCCC(CN(C)C)C1=O (stereo not drawn) | > 100 µM | > 100 µM | > 100 µM | > 54.2 µM | > 100 µM | > 100 µM | > 41.2 µM | > 63.6 µM | > 100 µM | > 54.4 µM | > 45.6 µM | 24.3 µM | 30.9 µM
5 | NCCCCC(=O)c1cccnc1 | > 100 µM | > 100 µM | > 100 µM | > 100 µM | > 100 µM | > 100 µM |  | > 100 µM | > 100 µM | > 100 µM | > 100 µM |  | 
6 | Cc1cc(=O)[nH]c(NNC(C#N)c2c(O)ccc3ccccc23)n1 (stereo not drawn) | 24.7 µM | 5.81 µM | 18.7 µM |  | 95.7 µM | 25 µM | 31.1 µM | 82.7 µM | 46.5 µM | 68.3 µM | 52.6 µM |  | 
7 | O=C(NC(Nc1ccc(F)cc1)(C(F)(F)F)C(F)(F)F)C(C(F)(F)F)C(F)(F)F |  |  |  | > 100 µM |  |  | > 43.9 µM | > 100 µM | 60 µM | > 100 µM | > 100 µM | > 100 µM | > 100 µM
8 | CC(C)(C)OC(=O)c1ccc(NCC2=CC(=O)C=CC2=O)cc1 |  |  |  | 28.8 µM |  |  | 22 µM | 32.5 µM | > 27.1 µM | 29.2 µM | 41.6 µM | 12.3 µM | 25.3 µM
9 | [O-][N+]1=NC(c2ccccc2)=C1c1ccccc1 |  |  |  | > 50 µM |  |  | > 50 µM | > 50 µM | > 50 µM | > 50 µM | > 50 µM | > 50 µM | > 50 µM
10 | CN(C)S(=O)(=O)n1cnc(CO)c1 |  |  |  | > 100 µM |  |  | > 100 µM | > 100 µM | > 100 µM | > 100 µM | > 100 µM | > 100 µM | > 100 µM
11 | CC1=CC(C)C(C)N(CCNS(=O)(=O)c2ccc(C)cc2)c2ccccc21 (stereo not drawn) |  |  |  | > 31.6 µM |  |  | 22.3 µM | 31.1 µM | 22.3 µM | 17.9 µM | > 100 µM | 19.8 µM | 18.8 µM
12 | CC(C)(C)c1cc(OCc2nnc3sc(=S)[nH]n23)c(Cl)cc1OCc1nnc2sc(=S)[nH]n12 |  |  |  | 85.4 µM |  |  | 80.6 µM | > 100 µM | > 100 µM | 58.4 µM | > 100 µM | 31.6 µM | 40.6 µM
13 | COc1cc(Nc2nnc3n2S(=O)(=O)c2cc(C)c(Cl)cc2S3)cc(OC)c1 |  |  |  | > 100 µM |  |  | 24.4 µM | > 100 µM | 95.7 µM | > 100 µM | 31.4 µM | > 100 µM | > 100 µM
14 | O=c1c2cc(Cl)ccc2[nH]c2cc(O)cc(O)c12 |  |  |  | > 10 µM |  |  | > 10 µM | > 10 µM | > 10 µM | > 10 µM | > 10 µM | > 10 µM | > 10 µM
15 | COc1ccc(/C=C2\Sc3nnc(CNc4ccc(Cl)cc4)n3N=C2c2cc(F)c(Cl)cc2Cl)cc1OC |  |  |  | > 100 µM |  |  | > 100 µM | > 100 µM | 42.2 µM | > 100 µM | > 100 µM | > 100 µM | > 100 µM
16 | CC1Cc2cc(O)c(O)cc2-c2cc(O)c(O)cc2CC1C (stereo not drawn) |  |  |  | 96.2 µM |  |  | 33.9 µM | 45.6 µM | > 100 µM | 43.6 µM | > 100 µM | 37.1 µM | 11.7 µM
17 | O=C1NC(=O)/C(=C/c2ccc(S(=O)(=O)N/N=C\C(O)C(O)C(O)C(O)CO)cc2)N1 (stereo not drawn) |  |  |  | > 100 µM |  |  | > 100 µM | > 100 µM | > 100 µM | > 100 µM | > 100 µM | > 100 µM | > 100 µM
18 | CC(C)CC(NC(=O)C(Cc1ccccc1)NC(=O)C(Cc1c[nH]c2ccccc12)NC(=O)CNC(=O)C(N)Cc1ccc(O)cc1)C(=O)O (stereo not drawn) (H-YGWFL-OH; configuration not given here) |  |  |  | 73.6 µM |  |  | > 100 µM | > 100 µM | 57.4 µM | > 100 µM | > 100 µM | > 100 µM | > 100 µM
19 | Cc1cnc2c(c1)C(=O)C1=C(OC(C)(C)CC1O)C2=O (stereo not drawn) | 33.5 µM | 22.4 µM | 25.4 µM | 36.4 µM | 32.5 µM | 9.86 µM | 25.6 µM | > 100 µM | 60.6 µM | 31.1 µM | 36.5 µM |  | 
20 | CCN(CC)CCCNc1nc(=O)[nH]c(C)c1C(=O)Nc1ccc2c(c1)c1ccccc1n2CC |  |  |  | > 100 µM |  |  | > 100 µM | > 100 µM | > 100 µM | > 100 µM | > 100 µM | > 100 µM | > 100 µM
21 | C=CC(Br)(CBr)CCC(Br)C(C)(C)Cl (stereo not drawn) |  |  |  | 26.8 µM |  |  | 10.4 µM | 14.5 µM | 2.31 µM | 6 µM | 30.1 µM | 4.89 µM | 8.34 µM
22 | Oc1cccc2cc(Br)cnc12 |  |  |  | 99 µM |  |  | > 30.4 µM | > 100 µM | > 31.4 µM | > 100 µM | > 100 µM | > 100 µM | > 100 µM
23 | CCCCCCCCCCCCOc1ccc(/C=C/C2=[N+](CCCl)CCO2)cc1 |  |  |  | > 100 µM |  |  | > 100 µM | > 100 µM | > 100 µM | > 100 µM | > 100 µM | > 100 µM | > 100 µM
24 | CC(C)(C)OC/C=C1\C(=O)O[C@H]2C[C@@H](O[Si](C)(C)C(C)(C)C)C[C@@H]12 |  |  |  | > 100 µM |  |  | > 100 µM | > 100 µM | > 100 µM | > 100 µM | > 100 µM | > 100 µM | > 100 µM
25 | O=C1NC(N2CCCCC2)=N/C1=C\c1ccccc1O |  |  |  | > 100 µM |  |  | 91.4 µM | > 100 µM | > 100 µM | > 100 µM | > 100 µM | > 100 µM | > 100 µM
26 | CCN(CC)/[N+]([O-])=N/OCOC(C)=O |  |  |  | > 100 µM |  |  | > 100 µM | > 100 µM | > 100 µM | > 100 µM | > 100 µM | > 100 µM | > 100 µM
27 | NC(=O)C(=O)C(c1ccccc1)S(=O)(=O)Cc1ccccc1 (stereo not drawn) |  |  |  | > 100 µM |  |  | > 100 µM | > 100 µM | > 100 µM | > 100 µM | > 100 µM | > 100 µM | > 100 µM
28 | COC(=O)[C@]1(c2cc3ccccc3[nH]2)CC2CN(CC(=O)N(C)OC)C1CC2(OC)OC (stereo partly drawn) |  |  |  | > 100 µM |  |  | > 100 µM | > 100 µM | 39.6 µM | > 100 µM | > 100 µM | > 100 µM | > 100 µM
